Key:
[1] = Cytotoxicity against human THP-1 cells assessed as cell growth inhibition; assay type: toxicity, cell-based
Leishmania donovani = assay: Antileishmanial activity against Leishmania donovani infected in human THP-1 cells assessed as growth inhibition by intramacrophage assay; assay type: functional, organism-based
[2] = Selectivity index, ratio of CC50 for cytotoxicity against human THP-1 cells to IC50 for antileishmanial activity against Leishmania donovani infected in human THP-1 cells; assay type: toxicity, cell-based; settings: read-out: Ratio CC50/IC50
[3] = Cytotoxicity against human HepG2 cells assessed as cell growth inhibition at 100 uM; assay type: toxicity, cell-based; settings: read-out: Activity

| Compound | CC50 [1] | IC50 (Leishmania donovani) | selectivity ratio [2] | inhibition at 100 µM [3] |
| --- | --- | --- | --- | --- |
| Cn1c(-c2ccc(C#N)cc2)cnc1NC(=O)c1ncc[nH]1 | > 100 µM | 14 µM | > 7.1 | – |
| COc1ccc(-c2cnc(NC(=O)c3ccccc3[N+](=O)[O-])n2C)cc1 | > 50 µM | > 50 µM | > 1 | – |
| COc1ccc(-c2cnc(NC(=O)c3cccc(O)c3)n2C)cc1 | > 100 µM | 54 µM | > 1.9 | – |
| COc1ccc(-c2cccc(NC(=O)c3ccc(F)cc3)n2)cc1 | > 100 µM | > 100 µM | > 1 | – |
| CCn1c(-c2ccc(OC)cc2)cnc1NC(=O)c1ccc(F)cc1 | > 100 µM | > 100 µM | > 2.6 | < 50% |
| COc1ccc(-c2cnc(NC(=O)c3ccccc3Br)n2C)cc1 | > 100 µM | > 100 µM | > 1 | – |
| COc1ccc(CNC(=O)NC(=O)c2ccc(F)cc2)cc1 | > 50 µM | > 50 µM | > 1 | – |
| Cn1c(-c2ccc(C#N)cc2)cnc1NC(=O)c1ccc(F)cc1 | > 50 µM | > 50 µM | > 1 | – |
| Cn1c(-c2ccccc2[N+](=O)[O-])cnc1NC(=O)c1ccc(F)cc1 | 31 µM | 9.8 µM | 3.2 | – |
| COc1ccc(-c2cnc(NC(=O)c3ccc(F)cc3)n2C(C)C)cc1 | > 50 µM | > 50 µM | > 1 | – |
| Cn1c(-c2ccccc2Cl)cnc1NC(=O)c1ncc[nH]1 | > 50 µM | 5.2 µM | > 9.6 | – |
| COc1ccc(-c2cnc(NC(=O)c3cccc(Cl)c3)n2C)cc1 | > 28 µM | > 10 µM | > 2.8 | – |
| Cn1c(-c2ccccc2Cl)cnc1NC(=O)c1ccc(F)cc1 | > 50 µM | 15 µM | > 3.3 | – |
| Cc1ccccc1C(=O)Nc1ncc(-c2ccccc2)n1C | > 100 µM | 57 µM | > 1.8 | < 50% |
| COc1cccc(-c2cnc(NC(=O)c3ncc[nH]3)n2C)c1 | > 100 µM | 8.1 µM | > 12 | < 50% |
| Cn1c(-c2ccccc2)cnc1NC(=O)c1cccc(Cl)c1 | > 50 µM | 8.5 µM | > 5.9 | – |
| COc1ccc(-c2cnc(NC(=O)c3ccc(Br)cc3)n2C)cc1 | > 100 µM | > 100 µM | > 1 | < 50% |
| COc1ccc(C(=O)Nc2ncc(-c3ccc(OC)cc3)n2C)cc1 | > 100 µM | > 100 µM | > 1 | – |
| CCC(=O)Nc1ncc(-c2ccc(OC)cc2)n1C | > 100 µM | > 100 µM | > 1 | – |
| COc1ccc(-c2cnc(NC(=O)c3ccncc3)n2C)cc1 | > 100 µM | 44 µM | > 2.3 | < 50% |
| COc1ccc(-c2cnc(NC(=O)c3cccnc3)n2C)cc1 | > 100 µM | > 100 µM | > 1 | < 50% |
| Cn1c(-c2cccc(Br)c2)cnc1NC(=O)c1ccc(F)cc1 | > 50 µM | 5.4 µM | > 9.3 | – |
| Cn1c(-c2ccccc2)cnc1NC(=O)c1ccccc1 | > 100 µM | 4.5 µM | > 22 | – |

| Compound | CC50 [1] | IC50 (Leishmania donovani) | selectivity ratio [2] | inhibition at 100 µM [3] |
| --- | --- | --- | --- | --- |
| COc1ccc(-c2cnc(NC(=O)c3ccccc3Cl)n2C)cc1 | > 50 µM | 13 µM | > 3.8 | – |
| Cn1c(-c2ccccc2)cnc1NC(=O)C1CCCCC1 | > 100 µM | 46 µM | > 2.2 | < 50% |
| Cn1c(-c2ccccc2)cnc1NC(=O)c1ccccc1Cl | > 50 µM | 5 µM | > 10 | – |
| COc1ccc(-c2cnc(NC(=O)c3ccco3)n2C)cc1 | > 100 µM | 23 µM | > 4.3 | < 50% |
| Cc1ccc(C(=O)Nc2ncc(-c3ccccc3)o2)cc1 | 26 µM | 1.4 µM | 19 | – |
| COc1cccc(-c2cnc(NC(=O)c3ccc(F)cc3)n2C)c1 | > 100 µM | > 100 µM | > 1 | – |
| COc1ccc(-c2cnc(NC(=O)c3ccccc3O)n2C)cc1 | > 100 µM | > 100 µM | > 1 | < 50% |
| Cn1c(-c2cccc(F)c2)cnc1NC(=O)c1ccc(F)cc1 | 58 µM | 12 µM | 4.8 | – |
| COc1ccc(-c2cnc(NC(=O)C3CCOCC3)n2C)cc1 | > 100 µM | > 100 µM | > 1 | – |
| Cn1c(-c2ccc([N+](=O)[O-])cc2)cnc1NC(=O)c1ccc(F)cc1 | > 50 µM | > 50 µM | > 1 | – |
| COc1ccccc1-c1cnc(NC(=O)c2ccc(F)cc2)n1C | > 100 µM | > 100 µM | > 1 | – |
| C[C@@H]1[C@H](O)[C@@H](C)/C=C/C=C/C=C/C=C/C=C/C=C/C=C/[C@H](O[C@@H]2O[C@H](C)[C@@H](O)[C@H](N)[C@@H]2O)C[C@@H]2O[C@](O)(C[C@@H](O)C[C@@H](O)[C@H](O)CC[C@@H](O)C[C@@H](O)CC(=O)O[C@H]1C)C[C@H](O)[C@H]2C(=O)O [AMPHOTERICIN B] | 6 µM | 0.12 µM | – | – |
| COc1ccc(-c2cnc(NC(=O)c3ccccn3)n2C)cc1 | > 100 µM | 13 µM | > 7.7 | – |
| COc1ccc(-c2cnc(NC(=O)c3cccc([N+](=O)[O-])c3)n2C)cc1 | > 100 µM | > 100 µM | > 1 | – |
| Cn1c(-c2ccccc2Br)cnc1NC(=O)c1ccc(F)cc1 | > 100 µM | > 100 µM | > 1 | – |
| COc1ccc(-c2cnc(NC(=O)c3ccc(C)cc3)n2C)cc1 | > 100 µM | 29 µM | > 3.4 | – |
| Cc1ccccc1-c1cnc(NC(=O)c2ccc(F)cc2)n1C | > 50 µM | 3.9 µM | > 13 | – |
| Cc1ccc(C(=O)Nc2ncc(-c3ccccc3)n2C)cc1 | > 50 µM | 2.4 µM | > 20 | – |
| COc1ccc(-c2cnc(NC(=O)c3ccccc3OC)n2C)cc1 | > 100 µM | 33 µM | > 3 | – |
| Cn1c(-c2cccc(C#N)c2)cnc1NC(=O)c1ccc(F)cc1 | > 100 µM | 16 µM | > 6.3 | – |
| Cc1cccc(-c2cnc(NC(=O)c3ccc(F)cc3)n2C)c1 | > 100 µM | 79 µM | > 1.3 | < 50% |
| Cn1c(-c2ccc(Br)cc2)cnc1NC(=O)c1ccc(F)cc1 | 46 µM | 7.1 µM | 6.5 | – |
| Cc1cccc(C(=O)Nc2ncc(-c3ccccc3)n2C)c1 | > 50 µM | 3.5 µM | > 14 | – |

| Compound | CC50 [1] | IC50 (Leishmania donovani) | selectivity ratio [2] | inhibition at 100 µM [3] |
| --- | --- | --- | --- | --- |
| Cn1c(-c2ccccc2)cnc1NC(=O)c1cccc(Br)c1 | > 50 µM | 3.1 µM | > 16 | – |
| Cn1c(-c2cccc(Cl)c2)cnc1NC(=O)c1ccc(F)cc1 | > 50 µM | 22 µM | > 2.3 | – |
| COc1ccc(-c2cnc(NC(=O)CCc3ccccc3)n2C)cc1 | > 100 µM | 22 µM | > 4.5 | – |
| COc1ccc(-c2cnc(NC(=O)c3ccc(F)cc3)n2-c2ccccc2)cc1 | 8.8 µM | 6.1 µM | > 2.9 | – |
| Cn1c(-c2cccc([N+](=O)[O-])c2)cnc1NC(=O)c1ccc(F)cc1 | > 50 µM | > 50 µM | > 1 | – |
| COc1ccc(-c2ccnc(NC(=O)c3ccc(F)cc3)c2)cc1 | > 100 µM | > 100 µM | > 1 | – |
| Cn1c(-c2ccccc2)cnc1NC(=O)c1cc(-c2ccccn2)[nH]n1 | > 50 µM | 0.68 µM | > 74 | – |
| COc1ccc(-c2cn(C)c(NC(=O)c3ccc(F)cc3)n2)cc1 | > 50 µM | > 50 µM | > 1 | – |
| Cn1c(-c2ccc(Cl)cc2)cnc1NC(=O)c1ccc(F)cc1 | 37 µM | 4.9 µM | 7.6 | – |
| Cn1c(-c2ccccc2)cnc1NC(=O)c1ccc(Br)cc1 | > 100 µM | 37 µM | > 2.7 | – |
| CCCCCCCCCCCCCCCCOP(=O)([O-])OCC[N+](C)(C)C [MILTEFOSINE] | > 20 µM | 0.39 µM | – | – |
| Cn1c(-c2ccccc2)cnc1NC(=O)c1ccc(Cl)cc1 | > 100 µM | 12 µM | > 8.3 | – |
| Cn1cc(-c2ccccc2)nc1NC(=O)c1ccc(F)cc1 | > 50 µM | > 50 µM | > 1 | – |
| Cn1c(-c2cccc(C#N)c2)cnc1NC(=O)c1ncc[nH]1 | > 50 µM | > 50 µM | > 1 | – |
| COc1ccc(CN(C)C(=O)NC(=O)c2ccc(F)cc2)cc1 | > 50 µM | > 50 µM | > 1 | – |
| COc1ccc(-c2cnc(NC(=O)c3cccc(OC)c3)n2C)cc1 | > 100 µM | > 100 µM | > 1 | – |
| COc1ccccc1-c1cnc(NC(=O)c2ncc[nH]2)n1C | > 50 µM | > 50 µM | > 1 | – |
| Cc1ccc(-c2cnc(NC(=O)c3ccc(F)cc3)n2C)cc1 | 60 µM | 13 µM | 4.5 | – |
| CCCn1c(-c2ccc(OC)cc2)cnc1NC(=O)c1ccc(F)cc1 | > 100 µM | 18 µM | > 1 | – |
| O=C(Nc1ncc(-c2ccccc2)o1)c1ccc(Cl)cc1 | 10 µM | 0.33 µM | 30 | – |
| COc1ccc(-c2cnc(NC(=O)c3ccc(Cl)cc3)n2C)cc1 | > 100 µM | 8.1 µM | > 12 | – |
| COc1ccc(-c2cnc(NC(=O)c3ccc(O)cc3)n2C)cc1 | > 100 µM | > 100 µM | > 1 | – |

From ChEMBL document CHEMBL5113486, “Hit-to-lead optimization of novel phenyl imidazole carboxamides that are active against Leishmania donovani” (Eur J Med Chem, 2022)
